“Also recorded” adds a separate entry of the source. Like-named read-outs stand apart in the source and are kept apart here.
Target: 3CL Protease (M^pro) (SARS-CoV-2) (Severe acute respiratory syndrome coronavirus 2, UniProt P0DTD1)
Assay: biochemical
Type: biochemical
Details: for inhibitory activity against M^pro: concentration not given; for inhibition at 100 µM: read-out: M^pro activity inhibited compared with the negative control; for inhibitory effects on the activity of Mpro: eight concentrations (0-200 μM) tested, Figure S2; for inhibition of the M^pro activity: range of concentrations from 0 to 500 μM tested

SMILES | inhibitory activity against M^pro | inhibition at 100 µM | inhibitory effects on the activity of Mpro | inhibition of the M^pro activity | IC50 | inhibition at 100 µM (100 μM compound)
O=C(OC1Cc2c(O)cc(O)cc2OC1c1cc(O)c(O)c(O)c1)c1cc(O)c(O)c(O)c1 (single isomer, unassigned; (-)) [EGCG, (–)-epigallocatechin-3-O-gallate] | inhibited | 44.4% | – | – | – | –
Oc1cc(O)c2c(c1)O[C@H](c1ccc(O)c(O)c1)[C@@H](O)C2 [CA, (+)-catechin] | did not have inhibitory activities; also recorded: No inhibitory activity was detected | – | No inhibitory effects | did not detect | – | –
O=C(O[C@@H]1Cc2c(O)cc(O)cc2O[C@H]1c1ccc(O)c(O)c1)c1cc(O)c(O)c(O)c1 [CAG, (+)-catechin-3-O-gallate] | inhibited | 40% | – | – | – | –
Oc1cc(O)c2c(c1)O[C@H](c1ccc(O)c(O)c1)[C@H](O)C2 [EC, (–)-epicatechin] | did not have inhibitory activities; also recorded: No inhibitory activity was detected | – | No inhibitory effects | did not detect | – | –
O=C(O[C@@H]1Cc2c(O)cc(O)cc2O[C@@H]1c1ccc(O)c(O)c1)c1cc(O)c(O)c(O)c1 [ECG, (–)-epicatechin-3-O-gallate] | inhibited | 40% | – | – | 5.21 ± 0.5 µM | –
Oc1cc(O)c2c(c1)O[C@H](c1cc(O)c(O)c(O)c1)[C@H](O)C2 [EGC, (–)-epigallocatechin] | did not have inhibitory activities; also recorded: No inhibitory activity was detected | – | No inhibitory effects | did not detect | – | –
Oc1cc(O)c2c(c1)O[C@@H](c1cc(O)c(O)c(O)c1)[C@H](O)C2 [GC, (+)-gallocatechin] | did not have inhibitory activities; also recorded: No inhibitory activity was detected | – | No inhibitory effects | did not detect | – | –
O=C(O[C@@H]1Cc2c(O)cc(O)cc2O[C@H]1c1cc(O)c(O)c(O)c1)c1cc(O)c(O)c(O)c1 [GCG, (–)-gallocatechin-3-O-gallate] | inhibited | 50% | – | – | – | –
Oc1cc(O)c2c(c1)O[C@@]1(c3ccc(O)c(O)c3)Oc3cc(O)c4c(c3[C@@H]2[C@H]1O)O[C@H](c1ccc(O)c(O)c1)[C@H](O)C4 [PA2, procyanidin A2] | did not have inhibitory activities | – | No inhibitory effects | did not detect | – | –
Oc1cc(O)c2c(c1)O[C@H](c1ccc(O)c(O)c1)[C@H](O)[C@H]2c1c(O)cc(O)c2c1O[C@H](c1ccc(O)c(O)c1)[C@H](O)C2 [PB2, procyanidin B2] | inhibited | – | – | – | 75.3 ± 1.29 µM | 81.5%
Oc1cc(O)c2c(c1)O[C@H](c1ccc(O)c(O)c1)[C@H](O)[C@H]2c1c(O)cc(O)c2c1O[C@H](c1ccc(O)c(O)c1)[C@@H](O)C2 [procyanidin B1] | inhibited | – | – | – | – | –

Source: article PMC7733993, “Docking Characterization and in vitro Inhibitory Activity of Flavan-3-ols and Dimeric Proanthocyanidins Against the Main Protease Activity of SARS-Cov-2” (Frontiers in Plant Science, 2020)
